Source: PubChem BioAssay (NCI)
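Cells were grown in 96-well plates and exposed to each compound for 48 hours at five concentrations; endpoints were interpolated linearly between bracketing concentrations, or set to the highest concentration if not reached. At the GI50, growth is halved. TGI: concentration producing complete growth inhibition.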

Key:
Assay in all cases: growth of human tumour cells (NCI), 48 h
K-562 leukemia = test system: K-562 leukemia
SW-620 colon = test system: SW-620 colon
BT-549 breast = test system: BT-549 breast
OVCAR-3 ovarian = test system: OVCAR-3 ovarian
SNB-75 CNS = test system: SNB-75 CNS
SR leukemia = test system: SR leukemia
OVCAR-8 ovarian = test system: OVCAR-8 ovarian
OVCAR-5 ovarian = test system: OVCAR-5 ovarian
UACC-62 melanoma = test system: UACC-62 melanoma
A549 NSCLC = test system: A549 NSCLC
NCI-H226 lung = test system: NCI-H226 lung
HT29 colon = test system: HT29 colon
MALME-3M melanoma = test system: MALME-3M melanoma
NCI-H23 lung = test system: NCI-H23 lung
UO-31 renal = test system: UO-31 renal
CAKI-1 renal = test system: CAKI-1 renal
NCI-H460 lung = test system: NCI-H460 lung
DU-145 prostate = test system: DU-145 prostate
NCI/ADR-RES ovarian = test system: NCI/ADR-RES ovarian
SN12C renal = test system: SN12C renal
HS 578T breast = test system: HS 578T breast
NCI-H522 lung = test system: NCI-H522 lung
SNB-19 CNS = test system: SNB-19 CNS
UACC-257 melanoma = test system: UACC-257 melanoma
LOX IMVI melanoma = test system: LOX IMVI melanoma
SK-MEL-5 melanoma = test system: SK-MEL-5 melanoma
CCRF-CEM leukemia = test system: CCRF-CEM leukemia
MDA-MB-231 breast = test system: MDA-MB-231 breast
COLO 205 colon = test system: COLO 205 colon
SK-MEL-28 melanoma = test system: SK-MEL-28 melanoma
HCT-15 colon = test system: HCT-15 colon
SF-268 CNS = test system: SF-268 CNS
OVCAR-4 ovarian = test system: OVCAR-4 ovarian
786-0 renal = test system: 786-0 renal
T-47D breast = test system: T-47D breast
U251 CNS = test system: U251 CNS
RXF 393 renal = test system: RXF 393 renal
KM12 colon = test system: KM12 colon
A498 renal = test system: A498 renal
MCF7 breast = test system: MCF7 breast
EKVX NSCLC = test system: EKVX NSCLC
HL-60(TB) leukemia = test system: HL-60(TB) leukemia
RPMI-8226 leukemia = test system: RPMI-8226 leukemia
PC-3 prostate = test system: PC-3 prostate
SK-OV-3 ovarian = test system: SK-OV-3 ovarian
HCT-116 colon = test system: HCT-116 colon
ACHN renal = test system: ACHN renal
SK-MEL-2 melanoma = test system: SK-MEL-2 melanoma
SF-295 CNS = test system: SF-295 CNS
TK-10 renal = test system: TK-10 renal
SF-539 CNS = test system: SF-539 CNS
HCC-2998 colon = test system: HCC-2998 colon
IGROV1 ovarian = test system: IGROV1 ovarian
HOP-62 NSCLC = test system: HOP-62 NSCLC
HOP-92 NSCLC = test system: HOP-92 NSCLC
M14 melanoma = test system: M14 melanoma
MOLT-4 leukemia = test system: MOLT-4 leukemia

`O=C(N/N=C/c1ccco1)c1[nH]c2ccc(Br)cc2c1-c1ccccc1` showed a GI50 (K-562 leukemia) of 48.5 nM, a TGI (K-562 leukemia) of 11900 nM and a GI50 (SW-620 colon) of 105 nM. It also gave a TGI (SW-620 colon) of 17300 nM, a GI50 (BT-549 breast) of 220 nM and a TGI (BT-549 breast) of 1190 nM. For the same molecule, the GI50 (OVCAR-3 ovarian) was 281 nM, the TGI (OVCAR-3 ovarian) was 14900 nM and the GI50 (SNB-75 CNS) was 177 nM. It also gave a TGI (SNB-75 CNS) of 5770 nM, a GI50 (SR leukemia) of 52.7 nM and a TGI (SR leukemia) of 5100 nM. The GI50 (OVCAR-8 ovarian) was 162 nM, the TGI (OVCAR-8 ovarian) was 3230 nM and the GI50 (OVCAR-5 ovarian) was 320 nM. For the same molecule, the TGI (OVCAR-5 ovarian) was 17600 nM, the GI50 (UACC-62 melanoma) was 72.4 nM and the TGI (UACC-62 melanoma) was 13600 nM. For the same molecule, the GI50 (A549 NSCLC) was 191 nM, the TGI (A549 NSCLC) was 14300 nM and the GI50 (NCI-H226 lung) was 327 nM. The TGI (NCI-H226 lung) was 10400 nM, the GI50 (HT29 colon) was 143 nM and the TGI (HT29 colon) was 1230 nM. It also gave a GI50 (MALME-3M melanoma) of 211 nM, a TGI (MALME-3M melanoma) of 21300 nM and a GI50 (NCI-H23 lung) of 403 nM. For the same molecule, the TGI (NCI-H23 lung) was 14200 nM, the GI50 (UO-31 renal) was 267 nM and the TGI (UO-31 renal) was 15400 nM. The GI50 (CAKI-1 renal) was 251 nM, the TGI (CAKI-1 renal) was 16500 nM and the GI50 (NCI-H460 lung) was 147 nM. For the same molecule, the TGI (NCI-H460 lung) was 1700 nM, the GI50 (DU-145 prostate) was 309 nM and the TGI (DU-145 prostate) was 12000 nM. The GI50 (NCI/ADR-RES ovarian) was 187 nM, the TGI (NCI/ADR-RES ovarian) was 2800 nM and the GI50 (SN12C renal) was 201 nM. For the same molecule, the TGI (SN12C renal) was 4530 nM, the GI50 (HS 578T breast) was 234 nM and the TGI (HS 578T breast) was 29500 nM. It also gave a GI50 (NCI-H522 lung) of 42.5 nM, a TGI (NCI-H522 lung) of 225 nM and a GI50 (SNB-19 CNS) of 252 nM. For the same molecule, the TGI (SNB-19 CNS) was 14700 nM, the GI50 (UACC-257 melanoma) was 437 nM and the TGI (UACC-257 melanoma) was 17300 nM. It also gave a GI50 (LOX IMVI melanoma) of 89.9 nM, a TGI (LOX IMVI melanoma) of 11700 nM and a GI50 (SK-MEL-5 melanoma) of 133 nM. For the same molecule, the TGI (SK-MEL-5 melanoma) was 644 nM, the GI50 (CCRF-CEM leukemia) was 238 nM and the TGI (CCRF-CEM leukemia) was 27100 nM. For the same molecule, the GI50 (MDA-MB-231 breast) was 292 nM, the TGI (MDA-MB-231 breast) was 2970 nM and the GI50 (COLO 205 colon) was 226 nM. The TGI (COLO 205 colon) was 695 nM, the GI50 (SK-MEL-28 melanoma) was 735 nM and the TGI (SK-MEL-28 melanoma) was 21100 nM. It also gave a GI50 (HCT-15 colon) of 85.9 nM, a TGI (HCT-15 colon) of 11800 nM and a GI50 (SF-268 CNS) of 975 nM. It also gave a TGI (SF-268 CNS) of 27900 nM, a GI50 (OVCAR-4 ovarian) of 988 nM and a TGI (OVCAR-4 ovarian) of 26200 nM. It also gave a GI50 (786-0 renal) of 411 nM, a TGI (786-0 renal) of 12600 nM and a GI50 (T-47D breast) of 1410 nM. It also gave a TGI (T-47D breast) of 26900 nM, a GI50 (U251 CNS) of 192 nM and a TGI (U251 CNS) of 11800 nM. The GI50 (RXF 393 renal) was 348 nM, the TGI (RXF 393 renal) was 16900 nM and the GI50 (KM12 colon) was 281 nM. The TGI (KM12 colon) was 12700 nM, the GI50 (A498 renal) was 8760 nM and the TGI (A498 renal) was 25400 nM. The GI50 (MCF7 breast) was 67.3 nM, the TGI (MCF7 breast) was 11100 nM and the GI50 (EKVX NSCLC) was 1300 nM. It also gave a TGI (EKVX NSCLC) of 27300 nM, a GI50 (HL-60(TB) leukemia) of 135 nM and a TGI (HL-60(TB) leukemia) of 503 nM. The GI50 (RPMI-8226 leukemia) was 200 nM, the TGI (RPMI-8226 leukemia) was > 26900 nM and the GI50 (PC-3 prostate) was 309 nM. For the same molecule, the TGI (PC-3 prostate) was 15900 nM, the GI50 (SK-OV-3 ovarian) was 403 nM and the TGI (SK-OV-3 ovarian) was 16900 nM. The GI50 (HCT-116 colon) was 106 nM, the TGI (HCT-116 colon) was 10700 nM and the GI50 (ACHN renal) was 303 nM. For the same molecule, the TGI (ACHN renal) was 14700 nM, the GI50 (SK-MEL-2 melanoma) was 302 nM and the TGI (SK-MEL-2 melanoma) was 22400 nM. It also gave a GI50 (SF-295 CNS) of 46.4 nM, a TGI (SF-295 CNS) of 11100 nM and a GI50 (TK-10 renal) of 1610 nM. The TGI (TK-10 renal) was 18000 nM, the GI50 (SF-539 CNS) was 91 nM and the TGI (SF-539 CNS) was 482 nM. For the same molecule, the GI50 (HCC-2998 colon) was 240 nM, the TGI (HCC-2998 colon) was 9410 nM and the GI50 (IGROV1 ovarian) was 212 nM. The TGI (IGROV1 ovarian) was 12800 nM, the GI50 (HOP-62 NSCLC) was 326 nM and the TGI (HOP-62 NSCLC) was 15400 nM. The GI50 (HOP-92 NSCLC) was 763 nM, the TGI (HOP-92 NSCLC) was 13200 nM and the GI50 (M14 melanoma) was 165 nM. For the same molecule, the TGI (M14 melanoma) was 21900 nM, the GI50 (MOLT-4 leukemia) was 265 nM and the TGI (MOLT-4 leukemia) was 11700 nM.
